Converted amounts (≈) assume the structure as drawn. Like-named read-outs stand apart in the source and are kept apart here.
Key:
[1] = tested on: herpes simplex virus type 1 (HSV-1); assay: microbe, parasite or virus in culture; format: cell-based; conditions: Human alphaherpesvirus 1, HEL, read-out: EC50 HSV-1 (Kos strain)
[2] = tested on: herpes simplex virus type 2 (HSV-2); assay: microbe, parasite or virus in culture; format: cell-based; conditions: Human alphaherpesvirus 2, HEL, read-out: EC50 HSV-2 (G strain)
[3] = tested on: primate polyomavirus (SV40); assay: microbe, parasite or virus in culture; format: cell-based, simian polyomavirus SV40; conditions: for EC50: Polyomavirus sp., BSC-1, in Primates
murine polyomavirus = assay: microbe, parasite or virus in culture; format: cell-based; conditions: for EC50: Alphapolyomavirus muris, UC1, UC1B
HSB-2 cells = conditions: human
in vitro [4] = conditions: African green monkey
in vitro [5] = conditions: mouse
[6] = tested on: Varicella-Zoster Virus (VZV); assay: microbe, parasite or virus in culture; format: cell-based; conditions: Human alphaherpesvirus 3, HEL
[7] = tested on: Human Cytomegalovirus (HCMV); assay: microbe, parasite or virus in culture; format: cell-based
Vaccinia virus = assay: organism not typed; format: cell-based; conditions: HEL
Cowpox virus (Brighton) = assay: microbe, parasite or virus in culture; format: cell-based; conditions: Cowpox virus, HEL, read-out: EC50 Cowpox virus Brighton
Orf virus (NZ2) = assay: microbe, parasite or virus in culture; format: cell-based; conditions: Orf virus, HEL, read-out: EC50 Orf virus NZ2
in vitro [8] = conditions: human, […]
[9] = read-out: antiviral activity (EC50) SV40 PML-1 strain EK
[10] = read-out: antiviral activity (EC50) SV40 PML-2 strain DAR
[11] = read-out: antiviral activity (EC50) SV40 strain A2895
[12] = read-out: antiviral activity (EC50) 2PTA2
[13] = read-out: antiviral activity (EC50) LID-1
[14] = read-out: antiviral activity (EC50) MN/RDE Toronto
[15] = read-out: antiviral activity (EC50) PTA
[16] = read-out: EC50 VZV 07/1 strain (HEL cells)
[17] = read-out: EC50 VZV OKA strain (HEL cells)
[18] = read-out: EC50 VZV YS strain (HEL cells)
[19] = read-out: EC50 VZV YS-R strain (HEL cells)
[20] = Human betaherpesvirus 5, AD169, HEL, read-out: EC50 HCMV AD-169 strain (HEL cells)
[21] = Human betaherpesvirus 5, HEL, read-out: EC50 HCMV Davis strain (HEL cells)
[22] = read-out: EC50 Vaccinia Virus Lister
[23] = Orthopoxvirus vaccinia, read-out: EC50 Vaccinia Virus Copenhagen
[24] = Orthopoxvirus vaccinia, read-out: EC50 Vaccinia Virus Lederle
[25] = Orthopoxvirus vaccinia, read-out: EC50 Vaccinia Virus WR

| Structure (SMILES) | EC50 [1] [µg/mL] | EC50 [2] [µg/mL] | selectivity index SV40 PML-1 strain EK [3] | selectivity index SV40 PML-2 strain DAR [3] | selectivity index SV40 strain A2895 [3] | EC50 [3, 9] [µg/mL] | EC50 [3, 10] [µg/mL] | EC50 [3, 11] [µg/mL] | selectivity index 2PTA2 (murine polyomavirus) | selectivity index LID-1 (murine polyomavirus) | selectivity index MN/RDE Toronto (murine polyomavirus) | selectivity index PTA (murine polyomavirus) | EC50 (murine polyomavirus; [12]) [µg/mL] | EC50 (murine polyomavirus; [13]) [µg/mL] | EC50 (murine polyomavirus; [14]) [µg/mL] | EC50 (murine polyomavirus; [15]) [µg/mL] | CC50 (in vitro [4]) [µg/mL] | CC50 (in vitro [5]) [µg/mL] | EC50 [6, 16] [µg/mL] | EC50 [6, 17] [µg/mL] | also measured |
| --- | --- | --- | --- | --- | --- | --- | --- | --- | --- | --- | --- | --- | --- | --- | --- | --- | --- | --- | --- | --- | --- |
| Nc1nc2c(ncn2COCCO)c(=O)[nH]1 [Acyclovir, reference compound] | 0.032 (≈ 142 nM) | 0.032 (≈ 142 nM) |  |  |  |  |  |  |  |  |  |  |  |  |  |  |  |  |  |  |  |
| NC(N)=NC(=O)NC[C@@H](CO)OCP(=O)(O)O [Compound 10, 2-{[(2S)-3-Hydroxy-2-(Phosphonomethoxy)propyl]carbamoyl}guanidine] |  |  | 1 | 1 | 1 | > 200 | > 200 | > 200 | 1 | 1 | 1 | 1 | > 200 | > 200 | > 200 | > 200 | > 200 | > 200 |  |  | Toxicity MCC (microscopy), HSB-2 cells (HSB-2 cells): >200 µg/mL |
| CCCCCCCCCCCCCCCCOCCOP1(=O)CO[C@@H](Cn2cnc(N)nc2=O)CO1 (stereo partly drawn) [Compound 12, hexadecyloxyethyl ester of 1-{[(5S)-2-Hydroxy-2-oxido-1,4,2-dioxaphosphinan-5-yl]methyl}-5-azacytosine] | 0.072 (≈ 136 nM) | 0.36 (≈ 678 nM) | 57.6 | 38.7 | 44.5 | 0.15 (≈ 283 nM) | 0.18 (≈ 339 nM) | 0.16 (≈ 302 nM) | 33.8 | 21.3 | 34.9 | 35.6 | 0.3 (≈ 565 nM) | 0.47 (≈ 886 nM) | 0.29 (≈ 547 nM) | 0.28 (≈ 528 nM) | 7.1 (≈ 13400 nM) | 10 (≈ 18800 nM) | < 2e-05 | < 2e-05 | EC50 [6, 18]: < 2e-05 µg/mL; EC50 [6, 19]: < 2e-05 µg/mL; EC50 [7, 20]: < 2e-05 µg/mL; EC50 [7, 21]: < 2e-05 µg/mL; EC50 (Vaccinia virus; [22]): < 0.032 µg/mL; EC50 (Vaccinia virus; [23]): < 0.032 µg/mL; EC50 (Vaccinia virus; [24]): < 0.032 µg/mL; EC50 (Vaccinia virus; [25]): 0.072 µg/mL (≈ 136 nM); EC50 (Cowpox virus (Brighton)): < 0.032 µg/mL; EC50 (Orf virus (NZ2)): < 0.032 µg/mL; CC50 (in vitro [8]): 6 µg/mL (≈ 11300 nM) |
| Nc1cnn(C[C@@H](CO)OCP(=O)(O)O)c(=O)n1 [HPMP-6-azaC analogue, (S)-1-[3-hydroxy-2-(phosphonomethoxy)propyl]-6-azacytosine] |  |  |  |  |  |  |  |  |  |  |  |  |  |  |  |  |  |  | 18.4 (≈ 65700 nM) | 38.2 (≈ 136000 nM) | EC50 [6, 18]: 42 µg/mL (≈ 150000 nM); EC50 [6, 19]: 17 µg/mL (≈ 60700 nM); EC50 [7, 20]: 30 µg/mL (≈ 107000 nM); EC50 [7, 21]: 37.3 µg/mL (≈ 133000 nM); EC50 (Vaccinia virus; [22]): ≥ 79.3 µg/mL; EC50 (Vaccinia virus; [23]): > 100 µg/mL; EC50 (Vaccinia virus; [24]): ≥ 81.6 µg/mL; EC50 (Vaccinia virus; [25]): > 100 µg/mL; EC50 (Cowpox virus (Brighton)): > 100 µg/mL; EC50 (Orf virus (NZ2)): ≥ 63.8 µg/mL; CC50 (in vitro [8]): > 50 µg/mL |

From US8153787B2 (priority 2005, dated 2012)
